SMILES strings stand for the structures. Read-outs that look alike come from different tables or passages of the source.

Holding throughout (experiment): biochemical
What all share (parameters): DiscoveRx KINOMEscan active site-directed competition binding; percent of control kinase bound to immobilised ligand

Assay [1] addresses T1, AMPK-alpha2 (Homo sapiens, UniProt P54646).
T1 construct: gene PRKAA2

In assay [2] the target is T2, HIPK4 (Homo sapiens, UniProt Q8NE63).
T2 sequence (Q8NE63 1-616): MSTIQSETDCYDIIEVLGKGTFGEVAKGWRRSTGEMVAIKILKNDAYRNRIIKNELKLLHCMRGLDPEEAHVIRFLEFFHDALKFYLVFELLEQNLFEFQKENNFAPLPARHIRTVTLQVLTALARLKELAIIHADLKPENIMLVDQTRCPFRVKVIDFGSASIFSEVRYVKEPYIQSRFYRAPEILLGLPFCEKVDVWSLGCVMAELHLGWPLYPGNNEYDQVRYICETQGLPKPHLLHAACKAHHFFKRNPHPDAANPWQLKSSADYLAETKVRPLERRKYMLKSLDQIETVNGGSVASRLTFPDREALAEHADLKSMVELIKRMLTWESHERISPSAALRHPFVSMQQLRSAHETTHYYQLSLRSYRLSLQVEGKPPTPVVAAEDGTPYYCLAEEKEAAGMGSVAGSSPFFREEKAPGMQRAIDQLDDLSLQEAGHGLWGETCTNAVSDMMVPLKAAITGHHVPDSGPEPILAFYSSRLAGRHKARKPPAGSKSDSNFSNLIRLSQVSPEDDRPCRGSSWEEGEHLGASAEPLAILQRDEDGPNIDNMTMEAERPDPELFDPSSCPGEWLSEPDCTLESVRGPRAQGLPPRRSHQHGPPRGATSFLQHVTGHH

The target in assay [3] is T3, PIK3C2G (Homo sapiens, UniProt O75747).
T3 sequence (O75747 1-1486): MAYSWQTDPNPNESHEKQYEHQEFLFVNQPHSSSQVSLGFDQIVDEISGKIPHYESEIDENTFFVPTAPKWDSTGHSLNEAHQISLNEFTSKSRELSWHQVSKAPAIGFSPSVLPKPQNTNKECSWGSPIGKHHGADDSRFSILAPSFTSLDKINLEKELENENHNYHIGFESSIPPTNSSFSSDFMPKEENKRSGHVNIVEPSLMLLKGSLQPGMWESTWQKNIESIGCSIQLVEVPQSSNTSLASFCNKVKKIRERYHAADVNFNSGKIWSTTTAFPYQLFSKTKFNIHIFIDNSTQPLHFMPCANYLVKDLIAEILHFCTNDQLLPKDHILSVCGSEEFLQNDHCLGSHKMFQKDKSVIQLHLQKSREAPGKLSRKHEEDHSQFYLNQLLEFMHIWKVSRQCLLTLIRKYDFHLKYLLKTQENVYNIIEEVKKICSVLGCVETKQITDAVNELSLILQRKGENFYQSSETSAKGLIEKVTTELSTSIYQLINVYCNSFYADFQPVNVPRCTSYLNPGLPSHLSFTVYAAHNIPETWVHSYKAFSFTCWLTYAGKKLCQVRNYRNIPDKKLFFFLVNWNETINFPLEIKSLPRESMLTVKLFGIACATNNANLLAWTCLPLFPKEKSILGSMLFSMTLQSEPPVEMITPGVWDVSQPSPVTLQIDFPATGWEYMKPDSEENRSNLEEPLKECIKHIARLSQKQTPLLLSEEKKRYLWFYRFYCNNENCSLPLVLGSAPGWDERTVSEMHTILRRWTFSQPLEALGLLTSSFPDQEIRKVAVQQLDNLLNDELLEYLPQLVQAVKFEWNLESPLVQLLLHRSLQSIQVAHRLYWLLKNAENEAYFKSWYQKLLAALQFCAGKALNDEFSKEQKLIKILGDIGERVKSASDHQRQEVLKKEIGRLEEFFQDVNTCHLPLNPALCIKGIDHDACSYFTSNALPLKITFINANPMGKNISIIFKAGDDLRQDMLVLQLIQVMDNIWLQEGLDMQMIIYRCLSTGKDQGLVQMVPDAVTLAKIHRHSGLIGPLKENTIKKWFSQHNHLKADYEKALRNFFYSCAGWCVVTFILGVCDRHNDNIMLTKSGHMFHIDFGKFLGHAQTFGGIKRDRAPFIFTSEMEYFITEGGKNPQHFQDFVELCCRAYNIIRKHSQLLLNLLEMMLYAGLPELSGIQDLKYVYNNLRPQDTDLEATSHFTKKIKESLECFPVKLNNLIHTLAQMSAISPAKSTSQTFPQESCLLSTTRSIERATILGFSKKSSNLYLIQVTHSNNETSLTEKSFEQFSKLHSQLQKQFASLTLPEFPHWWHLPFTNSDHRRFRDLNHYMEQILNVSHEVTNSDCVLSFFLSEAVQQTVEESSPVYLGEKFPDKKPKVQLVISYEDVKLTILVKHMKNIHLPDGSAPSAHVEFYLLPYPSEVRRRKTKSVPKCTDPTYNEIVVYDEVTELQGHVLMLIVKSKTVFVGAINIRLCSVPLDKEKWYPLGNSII

The target of assay [4] is SRC (Homo sapiens, UniProt P12931).
Sequence of SRC (P12931 whole entry): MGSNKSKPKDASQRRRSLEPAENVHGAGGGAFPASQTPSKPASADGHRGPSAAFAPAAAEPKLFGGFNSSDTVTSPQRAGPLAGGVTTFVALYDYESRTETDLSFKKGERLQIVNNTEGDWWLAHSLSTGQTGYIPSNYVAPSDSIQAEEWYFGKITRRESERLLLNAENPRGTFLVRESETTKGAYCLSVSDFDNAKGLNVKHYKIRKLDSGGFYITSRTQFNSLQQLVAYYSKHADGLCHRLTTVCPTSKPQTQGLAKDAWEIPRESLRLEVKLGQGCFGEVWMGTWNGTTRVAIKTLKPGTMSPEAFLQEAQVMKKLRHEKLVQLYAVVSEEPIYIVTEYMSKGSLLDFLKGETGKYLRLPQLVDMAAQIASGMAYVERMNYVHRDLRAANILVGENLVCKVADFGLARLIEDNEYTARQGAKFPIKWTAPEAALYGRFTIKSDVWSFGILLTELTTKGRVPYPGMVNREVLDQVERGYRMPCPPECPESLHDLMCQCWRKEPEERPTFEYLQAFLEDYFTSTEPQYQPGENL
Where [5] appears, read: read-out: Rucaparib / %Ctrl @ 10000nM, binding competition, % of control.
[6] abbreviates: read-out: Talazoparib (BMN 673) / %Ctrl @ 10000nM.
[7] abbreviates: read-out: Niraparib (MK-4827) / %Ctrl @ 10000nM.
Setting [8] is: read-out: Olaparib / %Ctrl @ 10000nM.

T1 sequence (P54646 whole entry): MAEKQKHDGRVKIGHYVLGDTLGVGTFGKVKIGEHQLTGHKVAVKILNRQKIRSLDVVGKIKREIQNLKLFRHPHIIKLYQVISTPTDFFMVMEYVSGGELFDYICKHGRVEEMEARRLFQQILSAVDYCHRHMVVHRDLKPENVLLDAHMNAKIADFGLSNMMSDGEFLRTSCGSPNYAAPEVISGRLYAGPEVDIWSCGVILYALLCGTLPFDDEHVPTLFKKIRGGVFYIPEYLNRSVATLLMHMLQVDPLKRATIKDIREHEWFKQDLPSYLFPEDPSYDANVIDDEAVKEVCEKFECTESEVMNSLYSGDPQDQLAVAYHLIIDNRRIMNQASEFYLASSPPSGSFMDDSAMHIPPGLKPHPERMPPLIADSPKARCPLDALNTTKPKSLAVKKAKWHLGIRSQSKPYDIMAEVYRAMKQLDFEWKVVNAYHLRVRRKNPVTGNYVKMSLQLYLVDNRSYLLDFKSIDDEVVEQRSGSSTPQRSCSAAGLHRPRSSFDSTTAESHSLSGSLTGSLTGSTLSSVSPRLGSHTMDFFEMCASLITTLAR

Regarding `CNCc1ccc(-c2[nH]c3cc(F)cc4c3c2CCNC4=O)cc1` [Rucaparib], the percent of control binding at 10 µM in assay [1] (setting [5]) came to 87%; in assay [2] (setting [5]) it was 51%; in assay [3] (setting [5]) it was 73%; in assay [4] (setting [5]), 99%.
In the case of `Cn1ncnc1[C@H]1c2n[nH]c(=O)c3cc(F)cc(c23)N[C@@H]1c1ccc(F)cc1` [Talazoparib], the percent of control binding at 10 µM in assay [1] (setting [6]) came out at 94%; in assay [2] (setting [6]) it was 100%; in assay [3] (setting [6]), 81%; in assay [4] (setting [6]) it was 93%.
As to `NC(=O)c1cccc2cn(-c3ccc([C@@H]4CCCNC4)cc3)nc12` [Niraparib], the percent of control binding at 10 µM in assay [1] (setting [7]) is 89%; in assay [2] (setting [7]), 80%; in assay [3] (setting [7]) it was 79%; in assay [4] (setting [7]), 94%.
Consider `O=C(c1cc(Cc2n[nH]c(=O)c3ccccc23)ccc1F)N1CCN(C(=O)C2CC2)CC1` [Olaparib], for which the percent of control binding at 10 µM in assay [1] (setting [8]) came to 93%; in assay [2] (setting [8]), 100%; in assay [3] (setting [8]) it was 82%; in assay [4] (setting [8]) it was 100%.
